According to patent US12458659B2, “Methods for treating macrophage-mediated diseases, and methods of identifying agents useful therefore” (The Regents of the University of California, priority 2019, dated 2025):

Key:
[1] = test system: NLRP3 inflammasome; test: IL-1β release by LPS-primed macrophages stimulated with NLRP3 activators (ELISA); type: cell-based, mouse; conditions: BMDM pretreated with A769662, LPS-primed, ATP and nigericin 40 min
Protocol: Macrophage culture and stimulation—Femurs and tibias from C57BL/6 mice, Ampkα1^−/− mice, and Il10rb^−/− mice at 6-10 weeks of age were used to generate bone-marrow-derived macrophages (BMDM) as described (Hornung et al., 2008). Macrophages were cultured in DMEM supplemented with 10% FBS, 20% L929-cell conditioned medium, and 100 U/ml penicillin-streptomycin for 7-10 days. Bone marrow was isolated from MWS Nlrp3^A350VneoRCreT, FCAS Nlrp3^L351PneoCreT and NOMID Nlrp3^D301NneoCreT conditional knock-in mice (Bonar et al., 2012; Brydges et al., 2009), and were allowed to differentiate over 7 days with addition of fresh mouse recombinant GMCSF every three days. (Z)-4-hydroxitamoxifen at 0.4 μg/ml was added to cells 24 hr prior to treatment to induce the mutant Nlrp3 allele. Immortalized mouse BMDM were grown in DMEM supplemented with 10% FBS and 100 U/ml penicillin-streptomycin. All cells were grown at 37° C. with 5% CO2. NLRP3 inflammasome activation was induced priming for 4 hr with ultrapure LPS (100 ng/ml) followed by treatment with the NLRP3 activators ATP (4 mM) and nigericin (10 μM) for 45 min, unless otherwise indicated, and monosodium urate (MSU) crystals (400 μg/ml) and 1,2-dioleoyl-3-trimethylammoniumpropane (DOTAP) liposomes (50 μg/ml) for 3 hr. In Nlrp3 mutant macrophages IL-1b production was induced by LPS treatment for 16 hr at 37° C., whereas FCAS macrophages were incubated at 32° C. without LPS addition. AIM2 inflammasome activation was induced by 4 hr LPS priming and transfection with lipofectamine 3000 and the AIM2 activator poly(dA:dT) (1 μg/ml) for 8 hr. For choline deprivation experiments, the cells were cultured in CMRL1066 medium with or without choline for 2-3 hr before priming with LPS and kept during the experiment.
(§1) Protein Immunoblotting and ELISA—Mitochondria were isolated using Mitochondria Isolation kit. Whole cell lysates were prepared in NP40 buffer containing a protease inhibitor cocktail and a phosphatase inhibitor cocktail, and supernatants were analyzed by SDS-PAGE. […]

[2] = test system: Slc44a1/CTL1; test: Slc44a1/CTL1 induction by LPS in BMDM (QPCR); type: cell-based, mouse; conditions: BMS345541-pretreated BMDM treated with LPS
Protocol: RNA Isolation and Quantitative Real-Time PCT (QPCR)—RNA was extracted using AllPrep DNA/RNA Mini kit, and cDNA was synthesized using SUPERSCRIPT™ VILO™ cDNA Synthesis Kit. mRNA expression was determined by QPCR in a CFX96 thermal cycler (Biorad) as described (Zhong et al., 2016c). Data are presented in arbitrary units and were calculated by 2^(-delta delta CT) method. Primer sequences were obtained from the NIH qPrimerDepot (mouseprimerdepot.nci.nih.gov) and provided by Integrated DNA technologies, as set forth below.

[3] = test system: MWS Nlrp3^A350VneoRCreT mutant mice; test: Muckle Wells Syndrome mice; type: in vivo, mouse; conditions: 2.5 mg/kg IP BID for 15 days
Protocol: Muckle Wells Syndrome Mice—Sixteen- to twenty-two-week-old male MWS Nlrp3^A350VneoRCreT mutant mice were subjected to MN58b (2.5 mg/kg) or vehicle IP injection BID daily for 15 days. Tamoxifen (50 mg/kg) was administered daily via IP for 4 days after first MN58b (or vehicle) treatment, and once more on day 7 to maintain Cre expression. At the endpoint, blood, spleen and liver were collected for analysis. Complete blood counts were preformed using a ScilVet Animal Blood Counter (ABX Diagnostics). Livers were paraffin embedded and hematoxylin and eosine staining was performed to assess liver histology. None of the animals was excluded from the analysis and liver histology was blind examined.

[4] = test system: C57BL/6 mice; test: LPS-induced septic shock; type: in vivo, mouse
Protocol: LPS-induced septic shock and air pouch model—Eight- to twelve-week-old C57BL/6 mice were subjected to LPS-induced septic shock as described (Zhong et al., 2016c). Briefly, 50 mg/kg LPS was intraperitoneal (IP) injected, and when indicated, animals were pretreated with the ChoKα inhibitor MN58B 2.5 mg/kg or vehicle (sodium chloride) via IP injection daily, starting three days before LPS challenge. Mice were analyzed for survival and circulating cytokines (3 hr after LPS challenge). None of the animals was excluded from the analysis.

[5] = test system: C57BL/6 mice; test: Synovium-like air pouch gout model (MSU crystals); type: in vivo, mouse
Protocol: Synovium-like air pouch gout model—Subcutaneous air pouches were generated by repeated injection of sterile air into 8-12-week old C57BL/6 mice to create an accessible space that develops a synovium-like membrane within 7 days as described (Wang et al., 2016). Afterward, mice were treated with MN58b IP (2.5 mg/kg) or vehicle, 24 hr before injecting lml MSU crystals (3 mg/ml) into the air pouch. Pouch tissue and fluids were harvested 8 hr later for analysis. None of the animals was excluded from the analysis.

[6] = test system: CTL1; test: CTL1 levels after colchicine treatment; type: cell-based
Sequence of CTL1 (Q6X893 whole entry): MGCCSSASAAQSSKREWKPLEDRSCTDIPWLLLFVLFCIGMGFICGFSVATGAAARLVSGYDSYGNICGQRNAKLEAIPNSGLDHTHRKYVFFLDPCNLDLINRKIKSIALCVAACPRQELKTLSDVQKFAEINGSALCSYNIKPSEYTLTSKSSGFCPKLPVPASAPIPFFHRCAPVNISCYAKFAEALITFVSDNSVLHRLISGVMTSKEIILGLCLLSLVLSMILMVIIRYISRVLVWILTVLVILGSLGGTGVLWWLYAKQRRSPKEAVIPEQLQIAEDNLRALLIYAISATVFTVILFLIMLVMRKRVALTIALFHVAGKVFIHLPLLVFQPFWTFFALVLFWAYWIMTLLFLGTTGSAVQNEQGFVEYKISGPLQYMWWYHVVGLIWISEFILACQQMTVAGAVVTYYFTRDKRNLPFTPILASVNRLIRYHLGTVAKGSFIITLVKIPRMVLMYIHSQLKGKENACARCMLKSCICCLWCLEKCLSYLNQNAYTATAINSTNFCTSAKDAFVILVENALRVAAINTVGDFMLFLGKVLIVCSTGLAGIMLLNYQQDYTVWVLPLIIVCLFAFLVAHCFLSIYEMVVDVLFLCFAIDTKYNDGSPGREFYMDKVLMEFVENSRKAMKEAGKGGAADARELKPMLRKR

[7] = test system: ChoKα; test: ChoKα levels after colchicine treatment; type: cell-based
[8] = test system: CTL1; test: CTL1 protein expression in LPS stimulated BMDM (immunoblot); type: cell-based, mouse; conditions: LPS stimulation
Protocol: Macrophage culture and stimulation—Femurs and tibias from C57BL/6 mice, Ampkα1^−/− mice, and Il10rb^−/− mice at 6-10 weeks of age were used to generate bone-marrow-derived macrophages (BMDM) as described (Hornung et al., 2008). Macrophages were cultured in DMEM supplemented with 10% FBS, 20% L929-cell conditioned medium, and 100 U/ml penicillin-streptomycin for 7-10 days. Bone marrow was isolated from MWS Nlrp3^A350VneoRCreT, FCAS Nlrp3^L351PneoCreT and NOMID Nlrp3^D301NneoCreT conditional knock-in mice (Bonar et al., 2012; Brydges et al., 2009), and were allowed to differentiate over 7 days with addition of fresh mouse recombinant GMCSF every three days. (Z)-4-hydroxitamoxifen at 0.4 μg/ml was added to cells 24 hr prior to treatment to induce the mutant Nlrp3 allele. Immortalized mouse BMDM were grown in DMEM supplemented with 10% FBS and 100 U/ml penicillin-streptomycin. All cells were grown at 37° C. with 5% CO2. […]
as §1

[9] = test system: choline mobilization via the Kennedy pathway; test: Choline, phosphocholine and phosphatidylcholine content of LPS-stimulated BMDM (NMR, MS); type: cell-based, mouse; conditions: BMDM, LPS 4 hr
Protocol: Choline and Phosphocholine Analysis by NMR—BMDM were treated with LPS for 4 hr and then were collected and processed for NMR analysis as described (Guma et al., 2015a; Tiziani et al., 2009). Polar metabolite isolation was performed using a modified Bligh-Dyer procedure (Wu et al., 2008). Extracts were dried using a CentriVap refrigerated vacuum concentrator (Labconco, Kansas City, MO, USA). Dried extracts were reconstituted in 100 mM phosphate buffer (pH 7.0) prepared in 10% H2O/90% D2O (Sigma) that contained 0.5 mM sodium 3-(trimethylsilyl)propionate-2,2,3,3,-d4 (TMSP) as the internal standard. One-dimensional ^1H NMR spectra were acquired on a Bruker Avance III 500 MHz with 1.7 mm TCI MicroCryoProbe system (Bruker BioSpin Corp., Billerica, MA) equipped with an autosampler at 300 K and processed as previously described (Lodi et al., 2017; Lu et al., 2017; Ludwig and Gunther, 2011). Metabolite assignment and quantification were performed using the Chenomx 8.2 NMR Suite (Chenomx Inc., Edmonton, Alberta, Canada), the Birmingham Metabolite Library (Ludwig et al., 2012), and the Human Metabolome Database (Wishart et al., 2012).
Total phosphatidylcholine and mitochondrial lipids analysis by mass spectrometry—Total phosphatydilcholine (PC) analysis was measured in RSM932A-pretreated BMDM stimulated with LPS for 4 hr, while mitochondrial lipids were measured in mitochondria isolated from BMDM cultured in control or choline deficient medium and subjected to different treatments for 24 hr. Samples were processed for UHPLC-MS/MS analysis and analysis was performed on a hybrid quadrupole-Orbitrap mass spectrometer (Q Exactive, Thermo Scientific, Bremen, Germany) coupled to an Accela 1250 UHPLC system equipped with a quaternary pump, vacuum degasser, and open autosampler with temperature controller (6° C.; Fisher Scientific, San Jose, CA, USA). […]

## N#Cc1c(O)c2c(-c3ccc(-c4ccccc4O)cc3)csc2[nH]c1=O [A769662]
[1]
  IL-1β production: significantly reduced

## Cc1ccc2nc(NCCN)c3ncc(C)n3c2c1 [BMS345541]
[2]
  Slc44a1/CTL1 induction: blocked

## CN(C)c1cc[n+](Cc2ccc(CCCCc3ccc(C[n+]4ccc(N(C)C)cc4)cc3)cc2)cc1.[Br-].[Br-] [MN58b]
[3]
  MWS splenomegaly: reduced
  granulocytes: reduction
  liver size: reduced
  lymphocyte count: without an effect
  monocytes: reduction
  total white blood cells count: reduction
[4]; 2.5 mg/kg IP daily for 3 days before 50 mg/kg LPS IP
  LPS-induced death: prevented
[4]; 2.5 mg/kg IP daily for 3 days before LPS, 3 hr after LPS
  circulating IL-1β: reduced
[4]; circulating, 3 hr after LPS
  IL-6 production: did not inhibit
  TNF production: did not inhibit
[5]; 2.5 mg/kg 24 hr before MSU crystals
  total leukocyte recruitment into the pouch: attenuated
[5]; 2.5 mg/kg 24 hr before MSU crystals, pouch
  production of IL-1β: reduced
[5]; 2.5 mg/kg IP 24 hr before MSU crystals, pouch harvested 8 hr later, p<0.01
  reduction of IL-1β release: 66%
[5]; 2.5 mg/kg IP 24 hr before MSU crystals, pouch harvested 8 hr later, p<0.05
  reduction of MSU crystal-induced leukocyte recruitment: 47%

## COc1cc2c(c(OC)c1OC)-c1ccc(OC)c(=O)cc1[C@@H](NC(C)=O)CC2 [colchicine]
[6]
  reduction of CTL1 levels: 90%
[7]
  reduction of ChoKα levels: 85%

## lipopolysaccharide [LPS]
[8]
  increase of CTL1 expression: 6 fold
[9]; p<0.001
  increase of phosphocholine: 559%
[9]; p<0.01
  increase of intracellular choline: 238%
